Tests used:
S. aureus ATCC 29213 = assay: Agar Dilution susceptibility method (Example 5); assay type: cell-based, Staphylococcus aureus
Description: (§1) The Agar Dilution susceptibility method was used to test the effectiveness of the antimicrobial composition of Example 1. The organisms used were S. aureus ATCC 29213, E. coli ATCC 25922, S. typhimurium ATCC 14028, K. pneumoniae ATCC 10031, P. aeruginosa ATCC 27853, C. albicans ATCC 10231, and M. smegmatis ATCC 14468. The organisms were maintained on Tryptic Soy Agar (TSA) slants. For each week, the organisms were cultured in 10 ml of Tryptic Soy Broth (TSB). After incubation at 37° C. for 17 hours (48 hours for M. smegmatis), the organism suspensions were diluted with 10 ml of sterile saline as shown in Table 4. The mold Aspergillus niger was sustained on a Sabouraud Dextrose Agar slant. The sample was then cultured in 10 ml of Tryptic Soy Broth and incubated for 7 days at 22° C. The mold was then diluted in 0.1% Tween 80 in saline. The diluted bacteria and yeast organisms were then inoculated onto the prepared sample plates with a 1 μl loop. The mold Aspergillus niger was added to prepared sample tubes with a 100 μl pipette.
(§2) Phenyloxyethanol (PE), phenylethyl alcohol (PEA) and methyl/propylparabens (MP) in a ratio of 5:4 were initially screened at their commonly recommended effective concentrations of 0.3% v/v (3 μl/ml); 1% v/v (10 μl/ml); and 0.18% w/v (1 mg methyl and 0.8 mg propylparaben/ml), respectively. The antimicrobial agent was used at an initial concentration of 0.15% v/v (1.5 μl/ml).
The sample plates for the bacteria and yeast were prepared as follows: • Prepare 10 ml tubes of TSA and allow to cool to 50° C., • Add the calculated amount of the preservative or antimicrobial agent to 100 μl dimethylsulfoxide (DMSO) to achieve the specified concentration per ml TSA when 100 μl of the DMSO solution are added to a test tube containing 10 ml of TSA, • Vortex to homogenize the mixture in TSA, • Pour TSA and the preservative or antimicrobial agent into a properly labeled Petri dish, • Allow to cool overnight at room temperature. […]
The results for the bacteria and yeast were scored in relation to the growth present on the positive control plate. […]

E. coli ATCC 25922 = assay: Agar Dilution susceptibility method (Example 5); assay type: cell-based, Escherichia coli
Description: as §1, §2
(§3) The sample plates for the bacteria and yeast were prepared as follows: • Prepare 10 ml tubes of TSA and allow to cool to 50° C., • Add the calculated amount of the preservative or antimicrobial agent to 100 μl dimethylsulfoxide (DMSO) to achieve the specified concentration per ml TSA when 100 μl of the DMSO solution are added to a test tube containing 10 ml of TSA, • Vortex to homogenize the mixture in TSA, • Pour TSA and the preservative or antimicrobial agent into a properly labeled Petri dish, • Allow to cool overnight at room temperature.
(§4) The prepared sample plates were divided into seven sections and the plates labeled according to the preservative or antimicrobial agent. Each section was labeled according to the microorganism to be applied to each section. The diluted organism suspensions were inoculated onto their appropriate section with a 1 μl loop, streaking radially from the center to the outer edge of the plate. A positive control plate was prepared without a preservative or antimicrobial agent of Example 1. The plates were then incubated at 37° C. for 48 hours, recording the results at 24 and 48 hours.
(§5) The results for the bacteria and yeast were scored in relation to the growth present on the positive control plate. Growth (G) was noted when there was full growth visible and the organism was not affected. […]

[1] = test system: S. typhimurium ATCC 14028; assay: Agar Dilution susceptibility method (Example 5); assay type: cell-based, Salmonella typhimurium
Description: as §1, §2, §3, §4
Growth (G) was noted when there was full growth visible and the organism was not affected. […]
In this example and the tables, the amount of the antimicrobial agent is expressed in terms of the volume of antimicrobial sample. […]

K. pneumoniae ATCC 10031 = assay: Agar Dilution susceptibility method (Example 5); assay type: cell-based, Klebsiella pneumoniae
Description: as §1, §2, §3, §4, §5
(§6) In this example and the tables, the amount of the antimicrobial agent is expressed in terms of the volume of antimicrobial sample. The concentration of the antimicrobial agent of 1 μl/ml corresponds to 1 mg (milligram)/ml of the antimicrobial agent. The MIC obtained was confirmed by three consecutive results. DMSO was used to solubilize the test samples and help to diffuse the lipophilic ingredients into the agar. DMSO was used at a concentration not exceeding 1%.

A. niger ATCC 16404 = assay: Broth tube susceptibility test of the mold (Example 5); assay type: cell-based, Aspergillus niger
Description: as §1
The sample for the mold Aspergillus niger was prepared as follows: • Prepare 10 ml tubes of Tryptic Soy Broth (TSB), • Add the calculated amount of the sample to 100 μl dimethylsulfoxide (DMSO) to achieve the specified concentration per ml TSB. Then 100 μl of the DMSO is added to a test tube containing 10 ml of TSB, • Vortex to homogenize the mixture in TSB, • Add 100 μl of Aspergillus niger suspension to a tube of TSB not inoculated with any sample as a positive control.
The prepared sample tubes were inoculated with 100 μl of the mold Aspergillus niger suspension to produce a final mold spore concentration in each sample tube of 1×10^4 to 1×10^5 spores/ml. The prepared sample tubes of TSB were incubated at 37° C. for 5 days with the results being recorded at 3 and 5 days.
The results for Aspergillus niger were scored in relation to the growth present in the positive control tube. The growth (G) was noted when there was full growth visible as determined by the tube appearing cloudy to the same extent as the positive control tube. Partial activity (P) was recorded when the sample tube of TSB was less turbid than the control tube. No growth (I) was recorded when there was total inhibition and broth in the tube appeared clear.
as §6

Minimum Inhibitory Concentration (MIC) (sample/ml of agar or broth) (S. aureus ATCC 29213): 10.0 μl/ml
Minimum Inhibitory Concentration (MIC) (sample/ml of agar or broth) (E. coli ATCC 25922): 5.0 μl/ml
Minimum Inhibitory Concentration (MIC) (sample/ml of agar or broth) [1]: 5.0 μl/ml
Minimum Inhibitory Concentration (MIC) (sample/ml of agar or broth) (K. pneumoniae ATCC 10031): 5.0 μl/ml
Minimum Inhibitory Concentration (MIC) (sample/ml of agar or broth) (A. niger ATCC 16404): 2.5 μl/ml
SMILES: OCCc1ccccc1 [Phenylethyl Alcohol]
effect on S. aureus (S. aureus ATCC 29213; 0.3 wt %): no effect
growth score (S. aureus ATCC 29213; 6.0 μl/ml): I
growth score (E. coli ATCC 25922; 3.0 μl/ml): I
growth score (E. coli ATCC 25922; 5.0 μl/ml): I
growth score (E. coli ATCC 25922; 6.0 μl/ml): I
growth score ([1]; 3.0 μl/ml): I
growth score ([1]; 5.0 μl/ml): I
growth score ([1]; 6.0 μl/ml): I
growth score (K. pneumoniae ATCC 10031; 1.5 μl/ml): I
growth score (K. pneumoniae ATCC 10031; 3.0 μl/ml): I
growth score (K. pneumoniae ATCC 10031; 5.0 μl/ml): I
growth score (K. pneumoniae ATCC 10031; 6.0 μl/ml): I
growth score (A. niger ATCC 16404; 3.0 μl/ml): I
growth score (A. niger ATCC 16404; 5.0 μl/ml): I
growth score (A. niger ATCC 16404; 6.0 μl/ml): I

From US7429396B2, “Antifungal composition, its fungicidal effect on pathogenic dermatophytes, and process for inhibiting growth of fungi” (Bio-Botanica, Inc., priority 2003, dated 2008)
